Experimental data: the supplement of paper PMC8617591

How the values were obtained:
[1] = system: Mycobacterium tuberculosis Erdman (autoluminescent); assay: GRinf, maximum normalised growth rate inhibition (unitless (-1 to 1)); higher = less effect (negative = killing)
Method: (§1)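 DiaMOND equipotent two-drug combination dose responses against autoluminescent M. tuberculosis Erdman in 8 in vitro models. Read-out is OD600, or luminescence for the intracellular and dormancy models, normalised to untreated wells. Hill-fit Einf, AUC25 and GRinf are potency metrics; FIC50 and FIC90 are Loewe-additivity fractional inhibitory concentrations, given as log2 (negative = synergy). Replicates are averaged.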

[2] = system: Mycobacterium tuberculosis Erdman (autoluminescent); assay: Einf, fitted maximum growth inhibition of combination (fraction); higher = stronger maximal inhibition
Method: as §1

[3] = system: Mycobacterium tuberculosis Erdman (autoluminescent); assay: FIC90 (Loewe) at 90% inhibition (log2); higher = more antagonistic
Method: as §1

[4] = system: Mycobacterium tuberculosis Erdman (autoluminescent); assay: AUC25, normalised area under dose response up to IC25 (fraction (0-1)); higher = more potent at low dose
Method: as §1

[5] = system: Mycobacterium tuberculosis Erdman (autoluminescent); assay: FIC50 (Loewe) at 50% inhibition (log2); higher = more antagonistic
Method: as §1

COc1nc2ccc(Br)cc2cc1[C@@H](c1ccccc1)[C@@](O)(CCN(C)C)c1cccc2ccccc12 [bedaquiline] + CC(=O)NC[C@H]1CN(c2ccc(N3CCOCC3)c(F)c2)C(=O)O1 [linezolid]
Conditions	AUC25, [4]	Einf, [2]	FIC50, [5]	FIC90, [3]	GRinf, [1]
in vitro model: acidic pH 5.7, time point: constant (~7 days, model-specific)	0.0967	0.859	-0.0767	–	-0.481
in vitro model: acidic pH 5.7, time point: terminal (~4-5 doublings, model-specific)	0.0907	0.973	0.322	0.271	-0.338
in vitro model: intracellular J774, time point: constant = terminal	–	0.779	–	–	0.0692

Conditions	AUC25, [4]	Einf, [2]	FIC50, [5]	FIC90, [3]	GRinf, [1]
in vitro model: butyrate, time point: constant (~7 days, model-specific)	0.0836	0.935	0.413	-0.0357	-0.0894
in vitro model: butyrate, time point: terminal (~4-5 doublings, model-specific)	0.0548	0.955	0.268	0.0422	-0.102
in vitro model: cholesterol 0.05 mM, time point: constant (~7 days, model-specific)	0.153	0.803	0.123	–	-0.345
in vitro model: cholesterol 0.05 mM, time point: terminal (~4-5 doublings, model-specific)	0.147	0.945	-0.0301	1.01	-0.326
in vitro model: cholesterol-high 0.2 mM, time point: constant (~7 days, model-specific)	0.12	0.99	-0.127	0.76	-0.87
in vitro model: cholesterol-high 0.2 mM, time point: terminal (~4-5 doublings, model-specific)	0.121	1	-0.334	0.414	-0.851
in vitro model: dormancy (butyrate + nitrate, low O2), time point: constant (~7 days, model-specific)	0.0774	0.933	0.344	0.554	0.113
in vitro model: dormancy (butyrate + nitrate, low O2), time point: terminal (~4-5 doublings, model-specific)	0.0484	0.984	0.546	0.263	-0.0845
in vitro model: standard 7H9 glycerol, time point: constant = terminal	0.0721	0.961	0.142	0.0991	-0.106
in vitro model: valerate, time point: constant (~7 days, model-specific)	0.104	0.901	1.02	1.36	-0.0681
in vitro model: valerate, time point: terminal (~4-5 doublings, model-specific)	0.067	0.947	0.743	0.916	-0.0615

COc1nc2ccc(Br)cc2cc1[C@@H](c1ccccc1)[C@@](O)(CCN(C)C)c1cccc2ccccc12 [bedaquiline] + CC(C)/N=c1\cc2n(-c3ccc(Cl)cc3)c3ccccc3nc-2cc1Nc1ccc(Cl)cc1 [clofazimine]
Conditions	AUC25, [4]	Einf, [2]	FIC50, [5]	FIC90, [3]	GRinf, [1]
in vitro model: acidic pH 5.7, time point: constant (~7 days, model-specific)	0.105	0.853	0.214	–	-0.265
in vitro model: acidic pH 5.7, time point: terminal (~4-5 doublings, model-specific)	0.102	0.986	-0.0261	0.282	-0.322
in vitro model: intracellular J774, time point: constant = terminal	–	0.986	–	-0.499	-0.483

Conditions	AUC25, [4]	Einf, [2]	FIC50, [5]	FIC90, [3]	GRinf, [1]
in vitro model: butyrate, time point: constant (~7 days, model-specific)	0.0673	0.946	-0.498	-0.794	-0.0975
in vitro model: butyrate, time point: terminal (~4-5 doublings, model-specific)	0.0515	0.979	-0.353	-0.858	-0.101
in vitro model: cholesterol 0.05 mM, time point: constant (~7 days, model-specific)	0.0912	0.741	-0.628	–	-0.147
in vitro model: cholesterol 0.05 mM, time point: terminal (~4-5 doublings, model-specific)	0.0989	0.945	0.39	0.028	-0.224
in vitro model: cholesterol-high 0.2 mM, time point: constant (~7 days, model-specific)	0.0661	0.946	-0.437	-0.58	-0.413
in vitro model: cholesterol-high 0.2 mM, time point: terminal (~4-5 doublings, model-specific)	0.0725	0.997	0.0406	-0.388	-0.62
in vitro model: dormancy (butyrate + nitrate, low O2), time point: constant (~7 days, model-specific)	0.0657	0.905	-0.281	-0.778	0.168
in vitro model: dormancy (butyrate + nitrate, low O2), time point: terminal (~4-5 doublings, model-specific)	0.067	0.988	-0.558	-0.863	-0.267
in vitro model: standard 7H9 glycerol, time point: constant = terminal	0.0822	0.974	-0.132	-0.648	-0.119
in vitro model: valerate, time point: constant (~7 days, model-specific)	0.112	0.94	-0.453	-1.82	-0.151
in vitro model: valerate, time point: terminal (~4-5 doublings, model-specific)	0.0649	0.956	0.0093	-0.0427	-0.0795
